Format in all cases: functional
In assay [1] the test system is Mycobacterium tuberculosis. Briefly: Antitubercular activity against Mycobacterium tuberculosis H37Rv assessed as growth inhibition by BACTEC MGIT method.
The subject of assay [2] is Candida albicans. Nature of the assay: Antimicrobial activity against Candida albicans MTCC 183 assessed as diameter of growth zone inhibition by agar streak dilution method.
For assay [3], the system named is Aspergillus niger. Briefly: Antimicrobial activity against Aspergillus niger MTCC 282 assessed as diameter of growth zone inhibition by agar streak dilution method.
Assay [4] relates to Pseudomonas aeruginosa. Nature of the assay: Antimicrobial activity against Pseudomonas aeruginosa MTCC 741 assessed as diameter of growth zone inhibition by agar streak dilution method.
The subject of assay [5] is Escherichia coli. Nature of the assay: Antimicrobial activity against Escherichia coli MTCC 739 assessed as diameter of growth zone inhibition by agar streak dilution method.
The subject of assay [6] is Staphylococcus aureus. Nature of the assay: Antimicrobial activity against Staphylococcus aureus MTCC 96 assessed as diameter of growth zone inhibition by agar streak dilution method.
The subject of assay [7] is Bacillus subtilis. Briefly: Antimicrobial activity against Bacillus subtilis MTCC 430 assessed as diameter of growth zone inhibition by agar streak dilution method.
Assay [8] deals with Candida albicans. Nature of the assay: Antimicrobial activity against Candida albicans MTCC 183 assessed as growth inhibition by agar streak dilution method.
Assay [9] has as its system Aspergillus niger. Briefly: Antimicrobial activity against Aspergillus niger MTCC 282 assessed as growth inhibition by agar streak dilution method.
Assay [10] relates to Pseudomonas aeruginosa. Briefly: Antimicrobial activity against Pseudomonas aeruginosa MTCC 741 assessed as growth inhibition by agar streak dilution method.
Assay [11] concerns Escherichia coli. Briefly: Antimicrobial activity against Escherichia coli MTCC 739 assessed as growth inhibition by agar streak dilution method.
Assay [12] relates to Bacillus subtilis. Nature of the assay: Antimicrobial activity against Bacillus subtilis MTCC 430 assessed as growth inhibition by agar streak dilution method.
Assay [13] concerns Staphylococcus aureus. Nature of the assay: Antimicrobial activity against Staphylococcus aureus MTCC 96 assessed as growth inhibition by agar streak dilution method.

Converted amounts (≈) assume the structure as drawn.

Turning to `O=C1C(Cl)C(c2cc3ccccc3nc2S)N1c1cccc(Cl)c1` (stereo unspecified), the MIC in assay [1] stood at 125 µg/mL (≈ 333 µM); in the assay on Candida albicans [8], 62.5 µg/mL (≈ 167 µM); in the assay on Aspergillus niger [9], 50 µg/mL (≈ 133 µM); in the assay on Pseudomonas aeruginosa [10], 62.5 µg/mL (≈ 167 µM); with Escherichia coli [11], 62.5 µg/mL (≈ 167 µM); with Bacillus subtilis [12] it was 12.5 µg/mL (≈ 33.3 µM). Besides, the MIC with Staphylococcus aureus [13] came to 12.5 µg/mL (≈ 33.3 µM). For the same compound, the “diameter of the inhibition zone (DIZ)” value came to 21 mm in the assay with Candida albicans [2]; 25 mm in the assay with Aspergillus niger [3]; 23 mm in the assay on Pseudomonas aeruginosa [4]; 22 mm in the assay with Escherichia coli [5]; 24 mm in the assay on Staphylococcus aureus [6]; 25 mm with Bacillus subtilis [7].
Take `O=C1CSC(c2cc3ccccc3nc2S)N1c1cccc(Cl)c1` (stereo unspecified): the minimum inhibitory concentration (MIC) in assay [1] was 125 µg/mL (≈ 335 µM); with Candida albicans [8], 62.5 µg/mL (≈ 168 µM); in the assay with Aspergillus niger [9], 50 µg/mL (≈ 134 µM); in the assay with Pseudomonas aeruginosa [10], 12.5 µg/mL (≈ 33.5 µM); in the assay on Escherichia coli [11], 50 µg/mL (≈ 134 µM); with Bacillus subtilis [12], 3.12 µg/mL (≈ 8.37 µM). In addition, the minimal inhibitory concentration (MIC) with Staphylococcus aureus [13] is 6.25 µg/mL (≈ 16.8 µM). For the same compound, the “diameter of the inhibition zone (DIZ)” value in the assay with Candida albicans [2] amounted to 22 mm; in the assay with Aspergillus niger [3], 25 mm; in the assay with Pseudomonas aeruginosa [4] it was 25 mm; in the assay with Escherichia coli [5], 22 mm; with Staphylococcus aureus [6] it was 24 mm; in the assay on Bacillus subtilis [7], 25 mm.
`O=C1CSC(c2cc3ccccc3nc2S)N1c1ccccc1` (stereo unspecified): the MIC in assay [1] is 1000 µg/mL (≈ 2950 µM); with Candida albicans [8], 100 µg/mL (≈ 295 µM); in the assay with Aspergillus niger [9], 100 µg/mL (≈ 295 µM); with Pseudomonas aeruginosa [10], 100 µg/mL (≈ 295 µM); in the assay with Escherichia coli [11] it was 100 µg/mL (≈ 295 µM); in the assay on Bacillus subtilis [12] it was 100 µg/mL (≈ 295 µM). The MIC in the assay on Staphylococcus aureus [13] was 100 µg/mL (≈ 295 µM). For the same compound, the “diameter of the inhibition zone (DIZ)” value in the assay with Candida albicans [2] is reported as 15 mm; in the assay with Aspergillus niger [3] it was 16 mm; with Pseudomonas aeruginosa [4], 17 mm; with Escherichia coli [5], 16 mm; with Staphylococcus aureus [6], 19 mm; in the assay on Bacillus subtilis [7], 17 mm.
For `O=C1CSC(c2cc3ccccc3nc2S)N1c1ccccc1[N+](=O)[O-]` (stereo unspecified), the MIC came out at 250 µg/mL (≈ 652 µM) in assay [1]; 62.5 µg/mL (≈ 163 µM) with Candida albicans [8]; 50 µg/mL (≈ 130 µM) with Aspergillus niger [9]; 25 µg/mL (≈ 65.2 µM) with Pseudomonas aeruginosa [10]; 62.5 µg/mL (≈ 163 µM) with Escherichia coli [11]; 62.5 µg/mL (≈ 163 µM) in the assay on Bacillus subtilis [12]. Moreover, the minimum inhibitory concentration (MIC) in the assay on Staphylococcus aureus [13] amounted to 62.5 µg/mL (≈ 163 µM). Also, the “diameter of the inhibition zone (DIZ)” value worked out at 22 mm with Candida albicans [2]; 23 mm with Aspergillus niger [3]; 23 mm in the assay with Pseudomonas aeruginosa [4]; 23 mm in the assay on Escherichia coli [5]; 22 mm in the assay on Staphylococcus aureus [6]; 23 mm in the assay on Bacillus subtilis [7].
Regarding `O=C1C(Cl)C(c2cc3ccccc3nc2S)N1c1ccccc1` (stereo unspecified), the MIC in [1] stood at 1000 µg/mL (≈ 2930 µM); in the assay with Candida albicans [8] it was 100 µg/mL (≈ 293 µM); in the assay with Aspergillus niger [9] it was 100 µg/mL (≈ 293 µM); in the assay with Pseudomonas aeruginosa [10], 100 µg/mL (≈ 293 µM); in the assay on Escherichia coli [11], 100 µg/mL (≈ 293 µM); in the assay on Bacillus subtilis [12], 100 µg/mL (≈ 293 µM). Besides, in the assay with Staphylococcus aureus [13], the MIC was determined as 100 µg/mL (≈ 293 µM). Also, the “diameter of the inhibition zone (DIZ)” value was less than 10 mm with Candida albicans [2]; less than 10 mm with Aspergillus niger [3]; less than 10 mm in the assay with Pseudomonas aeruginosa [4]; less than 10 mm in the assay on Escherichia coli [5]; 17 mm with Staphylococcus aureus [6]; 17 mm with Bacillus subtilis [7].
`O=C1C(Cl)C(c2cc3ccccc3nc2S)N1c1ccc(Cl)cc1` (stereo unspecified): the minimal inhibitory concentration (MIC) in [1] amounted to 62.5 µg/mL (≈ 167 µM); in the assay on Candida albicans [8], 100 µg/mL (≈ 266 µM); with Aspergillus niger [9], 25 µg/mL (≈ 66.6 µM); in the assay on Pseudomonas aeruginosa [10], 25 µg/mL (≈ 66.6 µM); with Escherichia coli [11], 25 µg/mL (≈ 66.6 µM); with Bacillus subtilis [12], 6.25 µg/mL (≈ 16.7 µM). Further, the MIC with Staphylococcus aureus [13] was found to be 6.25 µg/mL (≈ 16.7 µM). The “diameter of the inhibition zone (DIZ)” value with Candida albicans [2] is given as 22 mm; with Aspergillus niger [3] it was 25 mm; in the assay with Pseudomonas aeruginosa [4], 24 mm; in the assay on Escherichia coli [5], 24 mm; with Staphylococcus aureus [6], 26 mm; in the assay with Bacillus subtilis [7], 25 mm.
`O=C1CSC(c2cc3ccccc3nc2S)N1c1ccccc1Cl` (stereo unspecified): the minimum inhibitory concentration (MIC) in [1] was determined as 125 µg/mL (≈ 335 µM); in the assay on Candida albicans [8], 100 µg/mL (≈ 268 µM); with Aspergillus niger [9] it was 62.5 µg/mL (≈ 168 µM); in the assay on Pseudomonas aeruginosa [10] it was 62.5 µg/mL (≈ 168 µM); in the assay with Escherichia coli [11], 12.5 µg/mL (≈ 33.5 µM); with Bacillus subtilis [12], 12.5 µg/mL (≈ 33.5 µM). The MIC in the assay on Staphylococcus aureus [13] was 6.25 µg/mL (≈ 16.8 µM). The “diameter of the inhibition zone (DIZ)” value in the assay with Candida albicans [2] came out at 22 mm; with Aspergillus niger [3] it was 21 mm; in the assay on Pseudomonas aeruginosa [4], 23 mm; in the assay on Escherichia coli [5] it was 23 mm; with Staphylococcus aureus [6] it was 23 mm; in the assay on Bacillus subtilis [7] it was 25 mm.
On to `Cc1ccc(N2C(=O)CSC2c2cc3ccccc3nc2S)cc1` (stereo unspecified), for which the minimum inhibitory concentration (MIC) turned out to be 250 µg/mL (≈ 709 µM) in assay [1]; 100 µg/mL (≈ 284 µM) in the assay with Candida albicans [8]; 100 µg/mL (≈ 284 µM) in the assay with Aspergillus niger [9]; 100 µg/mL (≈ 284 µM) in the assay with Pseudomonas aeruginosa [10]; 100 µg/mL (≈ 284 µM) in the assay on Escherichia coli [11]; 100 µg/mL (≈ 284 µM) in the assay on Bacillus subtilis [12]. In addition, the minimum inhibitory concentration (MIC) with Staphylococcus aureus [13] is 100 µg/mL (≈ 284 µM). In addition, the “diameter of the inhibition zone (DIZ)” value stood at 15 mm in the assay on Candida albicans [2]; 17 mm in the assay with Aspergillus niger [3]; 19 mm in the assay on Pseudomonas aeruginosa [4]; 19 mm in the assay with Escherichia coli [5]; 20 mm with Staphylococcus aureus [6]; 20 mm with Bacillus subtilis [7].
As to `O=C1CSC(c2cc3ccccc3nc2S)N1c1cccc([N+](=O)[O-])c1` (stereo unspecified), the MIC was 125 µg/mL (≈ 326 µM) in assay [1]; 100 µg/mL (≈ 261 µM) in the assay on Candida albicans [8]; 25 µg/mL (≈ 65.2 µM) in the assay with Aspergillus niger [9]; 25 µg/mL (≈ 65.2 µM) in the assay with Pseudomonas aeruginosa [10]; 6.25 µg/mL (≈ 16.3 µM) in the assay on Escherichia coli [11]; 50 µg/mL (≈ 130 µM) in the assay with Bacillus subtilis [12]. Also, in the assay on Staphylococcus aureus [13], the MIC is 50 µg/mL (≈ 130 µM). In addition, the “diameter of the inhibition zone (DIZ)” value is reported as 20 mm in the assay on Candida albicans [2]; 23 mm in the assay on Aspergillus niger [3]; 23 mm in the assay with Pseudomonas aeruginosa [4]; 24 mm in the assay on Escherichia coli [5]; 22 mm with Staphylococcus aureus [6]; 22 mm with Bacillus subtilis [7].
With `Cc1cccc(N2C(=O)CSC2c2cc3ccccc3nc2S)c1` (stereo unspecified), the minimal inhibitory concentration (MIC) in [1] is 500 µg/mL (≈ 1420 µM); with Candida albicans [8] it was 100 µg/mL (≈ 284 µM); in the assay on Aspergillus niger [9], 100 µg/mL (≈ 284 µM); in the assay on Pseudomonas aeruginosa [10] it was 100 µg/mL (≈ 284 µM); with Escherichia coli [11], 100 µg/mL (≈ 284 µM); with Bacillus subtilis [12], 100 µg/mL (≈ 284 µM). For the same compound, in the assay with Staphylococcus aureus [13], the MIC amounted to 62.5 µg/mL (≈ 177 µM). The “diameter of the inhibition zone (DIZ)” value with Candida albicans [2] is 19 mm; in the assay with Aspergillus niger [3], 20 mm; in the assay with Pseudomonas aeruginosa [4], 18 mm; in the assay with Escherichia coli [5], 19 mm; in the assay on Staphylococcus aureus [6] it was 21 mm; with Bacillus subtilis [7], 19 mm.
With `O=C1C(Cl)C(c2cc3ccccc3nc2S)N1c1ccccc1[N+](=O)[O-]` (stereo unspecified), the minimal inhibitory concentration (MIC) is 500 µg/mL (≈ 1300 µM) in assay [1]; 62.5 µg/mL (≈ 162 µM) in the assay with Candida albicans [8]; 25 µg/mL (≈ 64.8 µM) in the assay on Aspergillus niger [9]; 25 µg/mL (≈ 64.8 µM) with Pseudomonas aeruginosa [10]; 62.5 µg/mL (≈ 162 µM) in the assay on Escherichia coli [11]; 62.5 µg/mL (≈ 162 µM) with Bacillus subtilis [12]. Further, the MIC with Staphylococcus aureus [13] was found to be 62.5 µg/mL (≈ 162 µM). In addition, the “diameter of the inhibition zone (DIZ)” value was found to be 21 mm with Candida albicans [2]; 23 mm in the assay on Aspergillus niger [3]; 24 mm in the assay with Pseudomonas aeruginosa [4]; 21 mm in the assay on Escherichia coli [5]; 22 mm with Staphylococcus aureus [6]; 22 mm in the assay on Bacillus subtilis [7].
As to `O=C1C(Cl)C(c2cc3ccccc3nc2S)N1c1cccc([N+](=O)[O-])c1` (stereo unspecified), the minimal inhibitory concentration (MIC) in assay [1] was determined as 250 µg/mL (≈ 648 µM); in the assay on Candida albicans [8] it was 100 µg/mL (≈ 259 µM); in the assay on Aspergillus niger [9] it was 12.5 µg/mL (≈ 32.4 µM); with Pseudomonas aeruginosa [10], 50 µg/mL (≈ 130 µM); in the assay on Escherichia coli [11] it was 50 µg/mL (≈ 130 µM); with Bacillus subtilis [12], 50 µg/mL (≈ 130 µM). In the assay on Staphylococcus aureus [13], the MIC came out at 50 µg/mL (≈ 130 µM). Also, the “diameter of the inhibition zone (DIZ)” value in the assay with Candida albicans [2] is recorded as 20 mm; in the assay on Aspergillus niger [3], 24 mm; with Pseudomonas aeruginosa [4] it was 23 mm; in the assay on Escherichia coli [5] it was 22 mm; with Staphylococcus aureus [6], 22 mm; in the assay with Bacillus subtilis [7] it was 22 mm.

In general, MIC refers to the smallest concentration in the dilution series that meets the test's criterion for growth inhibition.
